Experimental data: patent publication US20260285850A1, “SUBSTITUTED OXAZOLIDINONES AND IMIDAZOLINONES AS HERBICIDES” (FMC CORPORATION, priority 2023, published 2026)

Experiments:
Assay type in all cases: in vivo
[1] = system: ryegrass, Italian (italian ryegrass, Lolium multiflorum); experiment: Test A preemergence soil spray, visual injury rating 0-100; conditions: 10 days, 0 = no effect, 100 = complete control
Summary of the method: (§1)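 Scale 0–100 (no effect to complete control), visual, versus untreated controls, read 10 days after application. Application: preemergence directed spray onto seeded loam–sand soil, or postemergence to young plants; formulation in non-phytotoxic solvent with surfactant.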

[2] = system: palmer (palmer amaranth, palmer pigweed, Amaranthus palmeri); experiment: as above; conditions: 10 days, 0 = no effect, 100 = complete control
Summary of the method: as §1

[3] = system: blackgrass (Alopecurus myosuroides); experiment: as above; conditions: 10 days, 0 = no effect, 100 = complete control
Summary of the method: as §1

[4] = system: barnyardgrass (Echinochloa crus-galli); experiment: as above; conditions: 10 days, 0 = no effect, 100 = complete control
Summary of the method: as §1

[5] = system: soybean (Glycine max); experiment: as above; conditions: 10 days, 0 = no effect, 100 = complete control
Summary of the method: as §1

[6] = system: green foxtail (Setaria viridis); experiment: as above; conditions: 10 days, 0 = no effect, 100 = complete control
Summary of the method: as §1

[7] = system: kochia (Bassia scoparia); experiment: as above; conditions: 10 days, 0 = no effect, 100 = complete control
Summary of the method: as §1

[8] = system: oat, wild (wild oat, Avena fatua); experiment: as above; conditions: 10 days, 0 = no effect, 100 = complete control
Summary of the method: as §1

[9] = system: corn (Zea mays); experiment: as above; conditions: 10 days, 0 = no effect, 100 = complete control
Summary of the method: as §1

[10] = system: wheat (Triticum aestivum); experiment: as above; conditions: 10 days, 0 = no effect, 100 = complete control
Summary of the method: as §1

[11] = system: ragweed (common ragweed, Ambrosia artemisiifolia); experiment: as above; conditions: 10 days, 0 = no effect, 100 = complete control
Summary of the method: as §1

[12] = system: barnyardgrass (Echinochloa crusgalli); experiment: Test B flooded paddy test, visual plant response rating 0-100; conditions: 250 g ai/ha, Flood, applied to paddy water, evaluated after 13 days
Summary of the method: (§2)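 Each species was raised to two leaves before flooding to a 3 cm depth and dosing the water with compound. Injury was assessed by eye after 13 days under greenhouse conditions.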

[13] = system: ducksalad (Heteranthera limosa); experiment: as above; conditions: 250 g ai/ha, Flood, applied to paddy water, evaluated after 13 days
Summary of the method: as §2

[14] = system: rice (Oryza sativa); experiment: as above; conditions: 250 g ai/ha, Flood, applied to paddy water, evaluated after 13 days
Summary of the method: as §2

[15] = system: sedge, umbrella (small-flower umbrella sedge, Cyperus difformis); experiment: as above; conditions: 250 g ai/ha, Flood, applied to paddy water, evaluated after 13 days
Summary of the method: as §2

[16] = system: horseweed (Erigeron canadensis); experiment: Test A postemergence application, visual injury rating 0-100; conditions: 10 days
Summary of the method: as §1

[17] = system: ryegrass, Italian (italian ryegrass, Lolium multiflorum); experiment: as above; conditions: 10 days
Summary of the method: as §1

[18] = system: palmer (palmer amaranth, palmer pigweed, Amaranthus palmeri); experiment: as above; conditions: 10 days
Summary of the method: as §1

[19] = system: blackgrass (Alopecurus myosuroides); experiment: as above; conditions: 10 days
Summary of the method: as §1

[20] = system: barnyardgrass (Echinochloa crus-galli); experiment: as above; conditions: 10 days
Summary of the method: as §1

[21] = system: soybean (Glycine max); experiment: as above; conditions: 10 days
Summary of the method: as §1

[22] = system: green foxtail (Setaria viridis); experiment: as above; conditions: 10 days
Summary of the method: as §1

[23] = system: galium (catchweed bedstraw, Galium aparine); experiment: as above; conditions: 10 days
Summary of the method: as §1

[24] = system: kochia (Bassia scoparia); experiment: as above; conditions: 10 days
Summary of the method: as §1

[25] = system: oat, wild (wild oat, Avena fatua); experiment: as above; conditions: 10 days
Summary of the method: as §1

[26] = system: corn (Zea mays); experiment: as above; conditions: 10 days
Summary of the method: as §1

[27] = system: wheat (Triticum aestivum); experiment: as above; conditions: 10 days
Summary of the method: as §1

[28] = system: ragweed (common ragweed, Ambrosia artemisiifolia); experiment: as above; conditions: 10 days
Summary of the method: as §1

[29] = 31 g ai/ha, postemergence, 0 = no effect, 100 = complete control
[30] = Postemergence, 125 g ai/ha, 0 is no effect, 100 is complete control

Structure (SMILES): CSCCOC(=O)C1=CCC(NC(=O)C2(C)CN(c3cc(F)cc(F)c3)C(=O)O2)C1 (stereo not shown) [Compound 23]
- Ryegrass, Italian plant response rating (0-100) ([1]; 31 g ai/ha): 80
- Ryegrass, Italian plant response rating (0 to 100 scale) ([1]; 125 g ai/ha): 90
- Amaranth, Palmer plant response rating (0-100) ([2]; 31 g ai/ha): 30
- Amaranth, Palmer plant response rating (0 to 100 scale) ([2]; 125 g ai/ha): 90
- Blackgrass plant response rating (0-100) ([3]; 31 g ai/ha): 80
- Blackgrass plant response rating (0 to 100 scale) ([3]; 125 g ai/ha): 90
- Barnyardgrass plant response rating (0-100) ([4]; 31 g ai/ha): 60
- Barnyardgrass plant response rating (0 to 100 scale) ([4]; 125 g ai/ha): 100
- Soybean plant response rating (0-100) ([5]; 31 g ai/ha): 10
- Soybean plant response rating (0 to 100 scale) ([5]; 125 g ai/ha): 70
- Foxtail, Green plant response rating (0-100) ([6]; 31 g ai/ha): 70
- Foxtail, Green plant response rating (0 to 100 scale) ([6]; 125 g ai/ha): 100
- Kochia plant response rating (0-100) ([7]; 31 g ai/ha): 0
- Kochia plant response rating (0 to 100 scale) ([7]; 125 g ai/ha): 90
- Oat, Wild plant response rating (0-100) ([8]; 31 g ai/ha): 20
- Oat, Wild plant response rating (0 to 100 scale) ([8]; 125 g ai/ha): 60
- Corn plant response rating (0-100) ([9]; 31 g ai/ha): 30
- Corn plant response rating (0 to 100 scale) ([9]; 125 g ai/ha): 80
- Wheat plant response rating (0-100) ([10]; 31 g ai/ha): 80
- Wheat plant response rating (0 to 100 scale) ([10]; 125 g ai/ha): 90
- Ragweed plant response rating (0-100) ([11]; 31 g ai/ha): 0
- Ragweed plant response rating (0 to 100 scale) ([11]; 125 g ai/ha): 70
- Plant response rating, Barnyardgrass (0 to 100 scale, 0 is no effect and 100 is complete control) [12]: 95
- Plant response rating, Ducksalad (0 to 100 scale, 0 is no effect and 100 is complete control) [13]: 70
- Plant response rating, Rice (0 to 100 scale, 0 is no effect and 100 is complete control) [14]: 85
- Plant response rating, Sedge, Umbrella (0 to 100 scale, 0 is no effect and 100 is complete control) [15]: 86
- Horseweed plant response rating (0-100) [16, 29]: 80
- Horseweed plant response rating (0 to 100 scale) [16, 30]: 90
- Ryegrass, Italian plant response rating (0-100) [17, 29]: 80
- Ryegrass, Italian plant response rating (0 to 100 scale) [17, 30]: 70
- Amaranth, Palmer plant response rating (0-100) [18, 29]: 80
- Amaranth, Palmer / Pigweed, Palmer plant response rating (0 to 100 scale) [18, 30]: 90
- Blackgrass plant response rating (0-100) [19, 29]: 90
- Blackgrass plant response rating (0 to 100 scale) [19, 30]: 100
- Barnyardgrass plant response rating (0-100) [20, 29]: 100
- Barnyardgrass plant response rating (0 to 100 scale) [20, 30]: 100
- Soybean plant response rating (0-100) [21, 29]: 80
- Soybean plant response rating (0 to 100 scale) [21, 30]: 90
- Foxtail, Green plant response rating (0-100) [22, 29]: 90
- Foxtail, Green plant response rating (0 to 100 scale) [22, 30]: 90
- Galium plant response rating (0-100) [23, 29]: 80
- Galium plant response rating (0 to 100 scale) [23, 30]: 90
- Kochia plant response rating (0-100) [24, 29]: 80
- Kochia plant response rating (0 to 100 scale) [24, 30]: 90
- Oat, Wild plant response rating (0-100) [25, 29]: 90
- Oat, Wild plant response rating (0 to 100 scale) [25, 30]: 100
- Corn plant response rating (0-100) [26, 29]: 100
- Corn plant response rating (0 to 100 scale) [26, 30]: 100
- Wheat plant response rating (0-100) [27, 29]: 90
- Wheat plant response rating (0 to 100 scale) [27, 30]: 90
- Ragweed plant response rating (0-100) [28, 29]: 60
- Ragweed plant response rating (0 to 100 scale) [28, 30]: 70
